Data as given in patent US20250367322A1, “NUCLEOBASE EDITING SYSTEM AND METHOD OF USING SAME FOR MODIFYING NUCLEIC ACID SEQUENCES” (ReNAgade Therapeutics Management, Inc., priority 2022, published 2025).

Assays:
[1] = test system: Mus musculus EMX1 locus (mEMX1); experiment: In vivo TnpB editing of mouse EMX1 locus in liver, delivered with an LNP (indels detected by NGS); settings: TnpB delivered with an LNP (Table (III) Compound C59), FIG. 7
[2] = test system: human EMX1 locus (hEMX1); experiment: TnpB endonuclease editing of human EMX1 locus in HEK293T cells (indels detected by NGS); assay type: cell-based; settings: FIG. 5

Molecule	editing of Mus musculus EMX1 locus (mEMX1) in liver in vivo [1]	editing of human EMX1 locus (hEMX1) [2]
CCCCCC(CCCCC)CCOC(=O)CCCCCCCC(CCCCCCCC(=O)OC1CC2CCCC1C2)OC(=O)CCCN(C)C (centres unmarked) [Compound C59]	edits Mus musculus EMX1 locus (mEMX1) in liver in vivo	
TnpB (SEQ ID NO: 1): "TnpB (SEQ ID NO: 1) endonuclease edits human EMX1 locus (hEMX1) in HEK293T cells" (protein, Deinococcus radiodurans) MIRNKAFVVRLYPNAAQTELINRTLGSARFVYNHFLARRIAAYKESGKGLTYGQTSSELTLLKQAEETSWLSEVDKFALQNSLKNLETAYKNFFRTVKQSGKKVGFPRFRKKRTGESYRTQFTNNNIQIGEGRLKLPKLGWVKTKGQQDIQGKILNVTVRRIHEGHYEASVLCEVEIPYLPAAPKFAAGVDVGIKDFAIVTDGVRFKHEQNPKYYRSTLKRLRKAQQTLSRRKKGSARYGKAKTKLARIHKRIVNKRQDFLHKLTTSLVREYEIIGTEHLKPDNMRKNRRLALSISDAGWGEFIRQLEYKAAWYGRLVSKVSPYFPSSQLCHDCGFKNPEVKNLAVRTWTCPNCGETHDRDENAALNIRREALVAAGISDTLNAHGGYVRPASAGNGLRSENHATLVV		edits human EMX1 locus
